Target: WT EZH2 (EZH2 4 protein complex: EZH2, EED, SUZ12, RbAp48) (Homo sapiens, UniProt O75530+Q09028+Q15022+Q15910)
Test: WT EZH2 nucleosome assay
Assay type: biochemical
Conditions: nucleosome assay, 5 nM EZH2 4-protein complex, 1.5 μM SAM; read-out: WT EZH2 IC50
In short: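 IC50 values come from 4-parameter fits of 11-point dose responses, with % effect also given at 20 μM. Reactions held HeLa oligonucleosomes (25 μg/mL), rH1 (50 nM), 1.5 μM tritiated SAM and 5 nM enzyme complex at pH 8.5 Tris/DTT/Tween; stopped by TCA after 60 min, filtered and scintillation-counted.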

Chain of WT EZH2 (EZH2 4 protein complex: EZH2, EED, SUZ12, RbAp48) (Q15910 whole entry): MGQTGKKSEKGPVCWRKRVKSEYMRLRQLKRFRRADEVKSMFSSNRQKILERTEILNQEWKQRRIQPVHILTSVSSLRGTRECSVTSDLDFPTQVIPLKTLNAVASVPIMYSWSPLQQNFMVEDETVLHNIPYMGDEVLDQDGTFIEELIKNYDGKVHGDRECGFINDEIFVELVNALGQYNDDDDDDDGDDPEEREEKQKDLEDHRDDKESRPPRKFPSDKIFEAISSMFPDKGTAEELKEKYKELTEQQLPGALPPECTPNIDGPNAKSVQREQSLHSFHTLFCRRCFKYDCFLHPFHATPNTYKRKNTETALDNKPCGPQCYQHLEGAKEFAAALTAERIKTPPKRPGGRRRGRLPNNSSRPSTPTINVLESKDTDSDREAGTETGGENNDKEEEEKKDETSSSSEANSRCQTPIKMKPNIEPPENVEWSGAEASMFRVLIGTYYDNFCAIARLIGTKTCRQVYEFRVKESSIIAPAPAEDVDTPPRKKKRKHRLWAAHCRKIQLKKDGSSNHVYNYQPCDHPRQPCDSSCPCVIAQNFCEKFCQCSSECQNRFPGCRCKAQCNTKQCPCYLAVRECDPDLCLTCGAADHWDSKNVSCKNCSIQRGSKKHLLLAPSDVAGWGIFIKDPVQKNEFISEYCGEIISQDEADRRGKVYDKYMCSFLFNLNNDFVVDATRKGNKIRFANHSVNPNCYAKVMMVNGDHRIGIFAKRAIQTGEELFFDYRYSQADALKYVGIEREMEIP
Chain of WT EZH2 (EZH2 4 protein complex: EZH2, EED, SUZ12, RbAp48) (O75530 whole entry partner): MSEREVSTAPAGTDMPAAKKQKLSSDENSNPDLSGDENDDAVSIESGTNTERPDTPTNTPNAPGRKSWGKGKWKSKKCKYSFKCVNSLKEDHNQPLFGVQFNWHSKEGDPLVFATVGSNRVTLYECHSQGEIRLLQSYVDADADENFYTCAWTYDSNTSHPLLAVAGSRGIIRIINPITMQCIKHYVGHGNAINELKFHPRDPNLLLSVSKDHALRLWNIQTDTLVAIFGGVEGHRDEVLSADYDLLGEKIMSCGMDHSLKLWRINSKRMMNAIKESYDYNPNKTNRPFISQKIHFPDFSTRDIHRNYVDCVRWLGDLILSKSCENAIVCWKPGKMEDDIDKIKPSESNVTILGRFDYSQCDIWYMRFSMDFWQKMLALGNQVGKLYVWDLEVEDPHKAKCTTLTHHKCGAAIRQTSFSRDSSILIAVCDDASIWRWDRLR
Chain of WT EZH2 (EZH2 4 protein complex: EZH2, EED, SUZ12, RbAp48) (Q15022 whole entry partner): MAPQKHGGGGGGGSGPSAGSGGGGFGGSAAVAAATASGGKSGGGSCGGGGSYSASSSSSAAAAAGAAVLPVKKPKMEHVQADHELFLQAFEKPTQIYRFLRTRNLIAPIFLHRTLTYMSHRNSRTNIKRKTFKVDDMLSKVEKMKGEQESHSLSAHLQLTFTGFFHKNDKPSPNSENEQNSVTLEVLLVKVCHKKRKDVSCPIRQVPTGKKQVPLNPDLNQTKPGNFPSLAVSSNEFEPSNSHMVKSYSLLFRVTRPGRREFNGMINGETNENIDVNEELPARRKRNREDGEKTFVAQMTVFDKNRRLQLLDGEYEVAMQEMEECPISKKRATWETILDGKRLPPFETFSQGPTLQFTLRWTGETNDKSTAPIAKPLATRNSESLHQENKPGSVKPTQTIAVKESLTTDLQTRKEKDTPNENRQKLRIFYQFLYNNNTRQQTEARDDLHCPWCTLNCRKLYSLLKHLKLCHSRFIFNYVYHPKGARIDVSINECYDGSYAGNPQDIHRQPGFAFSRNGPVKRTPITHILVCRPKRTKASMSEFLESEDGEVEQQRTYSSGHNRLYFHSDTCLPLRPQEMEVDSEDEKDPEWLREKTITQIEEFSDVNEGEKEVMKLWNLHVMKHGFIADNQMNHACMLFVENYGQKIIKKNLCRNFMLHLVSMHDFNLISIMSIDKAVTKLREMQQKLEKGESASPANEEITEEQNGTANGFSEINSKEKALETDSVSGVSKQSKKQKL
Chain of WT EZH2 (EZH2 4 protein complex: EZH2, EED, SUZ12, RbAp48) (Q09028 whole entry partner): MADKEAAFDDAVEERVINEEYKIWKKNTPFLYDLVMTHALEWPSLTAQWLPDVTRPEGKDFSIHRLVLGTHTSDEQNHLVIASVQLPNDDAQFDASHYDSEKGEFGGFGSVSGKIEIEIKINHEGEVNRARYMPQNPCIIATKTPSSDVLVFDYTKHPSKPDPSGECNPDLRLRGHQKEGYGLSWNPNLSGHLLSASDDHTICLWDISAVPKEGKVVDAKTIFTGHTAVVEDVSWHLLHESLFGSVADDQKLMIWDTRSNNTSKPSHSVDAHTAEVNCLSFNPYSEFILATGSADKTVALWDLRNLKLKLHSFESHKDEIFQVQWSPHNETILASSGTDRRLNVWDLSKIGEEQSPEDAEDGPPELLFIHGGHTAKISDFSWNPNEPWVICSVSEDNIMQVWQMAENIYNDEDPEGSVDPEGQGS

Row | IC50 [µM] | Compound
1 | 19.8 | Cc1cc(C)c(CNC(=O)c2nc(OCCN3CCC(F)(F)C3)nc(-c3ccnn3C)c2C)c(=O)[nH]1 [Example 105, 2-[2-(3,3-difluoropyrroli-din-1-yl)ethoxy]-N-[(4,6-dimethyl-2-oxo-1,2-dihydropyridin-3-yl)methyl]-5-methyl-6-(1-methyl-1H-pyrazol-5-yl)pyrimidine-4-carboxamide]
2 | 21.8 | Cc1cc(C)c(CNC(=O)c2ncnc(N3CC[C@H](C)C3)c2C)c(=O)[nH]1 [Example 107, N-[(4,6-dimethyl-2-oxo-1,2-dihydropyridin-3-yl)methyl]-5-methyl-6-[(3S)-3-methylpyrrolidin-1-yl]pyrimidine-4-carboxamide]
3 | 22.2 | COc1nc(C(=O)NCc2c(C)cc(C)[nH]c2=O)c(C)c(-c2ccnn2C)n1 [Example 108, N-[(4,6-dimethyl-2-oxo-1,2-dihydropyridin-3-yl)methyl]-2-methoxy-5-methyl-6-(1-methyl-1H-pyrazol-5-yl)pyrimidine-4-carboxamide]
4 | 23 | Cc1cc(C)c(CNC(=O)c2nc(OCCN3CC(F)C3)nc(-c3ccnn3C)c2C)c(=O)[nH]1 [Example 109, N-[(4,6-dimethyl-2-oxo-1,2-dihydropyridin-3-yl)methyl]-2-[2-(3-fluoroazetidin-1-yl)ethoxy]-5-methyl-6-(1-methyl-1H-pyrazol-5-yl)pyrimidine-4-carboxamide]
5 | 23.2 | Cc1cc(C)c(CNC(=O)c2nccc(-c3ccnn3C)c2C)c(=O)[nH]1 [Example 110, N-[(4,6-dimethyl-2-oxo-1,2-dihydropyridin-3-yl)methyl]-3-methyl-4-(1-methyl-1H-pyrazol-5-yl)pyridine-2-carboxamide]
6 | 24.8 | Cc1cc(C)c(CNC(=O)c2cccc(-n3cnnc3C)c2C)c(=O)[nH]1 [Example 111, N-[(4,6-dimethyl-2-oxo-1,2-dihydropyridin-3-yl)methyl]-2-methyl-3-(3-methyl-4H-1,2,4-triazol-4-yl)benzamide]
7 | 25.3 | Cc1cc(C)c(CNC(=O)c2ncnc(N3CCCC3C(C)C)c2C)c(=O)[nH]1 (centres unmarked) [Example 112, N-[(4,6-dimethyl-2-oxo-1,2-dihydropyridin-3-yl)methyl]-6-(2-isopropylpyrroli-din-1-yl)-5-methylpyrimidine-4-carboxamide]
8 | 28.4 | Cc1cc(C)c(CNC(=O)c2nc(O[C@H]3CCOC3)nc(-c3ccnn3C)c2C)c(=O)[nH]1 [Example 114, N-[(4,6-dimethyl-2-oxo-1,2-dihydropyridin-3-yl)methyl]-5-methyl-6-(1-methyl-1H-pyrazol-5-yl)-2-[(3S)-tetrahydro-furan-3-yloxy]pyrimidine-4-carboxamide]
9 | 28.7 | Cc1cc(C)c(CNC(=O)c2ncnc(-c3ccnn3C)c2Cl)c(=O)[nH]1 [Example 115, 5-chloro-N-[(4,6-dimethyl-2-oxo-1,2-dihydropyridin-3-yl)methyl]-6-(1-methyl-1H-pyrazol-5-yl)pyrimidine-4-carboxamide]
10 | 29.2 | Cc1cc(C)c(CNC(=O)c2ncnc(N3CCC[C@@H]3C#N)c2C)c(=O)[nH]1 [Example 116, 6-[(2R)-2-cyanopyrrolidin-1-yl]-N-[(4,6-dimethyl-2-oxo-1,2-dihydropyridin-3-yl)methyl]-5-methyl-pyrimidine-4-carboxamide]
11 | 31.1 | Cc1cc(C)c(CNC(=O)c2nc(OCCN3CC(F)(F)C3)nc(-c3ccnn3C)c2C)c(=O)[nH]1 [Example 117, 2-[2-(3,3-difluoroazetidin-1-yl)ethoxy]-N-[(4,6-dimethyl-2-oxo-1,2-dihydropyridin-3-yl)methyl]-5-methyl-6-(1-methyl-1H-pyrazol-5-yl)pyrimidine-4-carboxamide]
12 | 31.8 | CCCc1cc(C)[nH]c(=O)c1CNC(=O)c1nc(C2CC2)nc(-c2ccnn2C)c1C [Example 118, 2-cyclopropyl-5-methyl-N-[(6-methyl-2-oxo-4-propyl-1,2-dihydropyridin-3-yl)methyl]-6-(1-methyl-1H-pyrazol-5-yl)pyrimidine-4-carboxamide]
13 | 40.5 | Cc1cc(C)c(CNC(=O)c2ncnc(N3CC[C@@H](C)C3)c2C)c(=O)[nH]1 [Example 120, N-[(4,6-dimethyl-2-oxo-1,2-dihydropyridin-3-yl)methyl]-5-methyl-6-[(3R)-3-methylpyrrolidin-1-yl]pyrimidine-4-carboxamide]
14 | 42.1 | Cc1cc(C(F)(F)F)c(CNC(=O)c2cccc(-c3ccnn3C)c2Cl)c(=O)[nH]1 [Example 121, 2-chloro-N-{[6-methyl-2-oxo-4-(trifluoromethyl)-1,2-dihydropyridin-3-yl]methyl}-3-(1-methyl-1H-pyrazol-5-yl)benzamide]
15 | 43.6 | Cc1cc(C)c(CNC(=O)c2ncnc(N3CCCC3C3CC3)c2C)c(=O)[nH]1 (centres unmarked) [Example 122, 6-(2-cyclopropyl-pyrrolidin-1-yl)-N-[(4,6-dimethyl-2-oxo-1,2-dihydropyridin-3-yl)methyl]-5-methylpyrimidine-4-carboxamide]
16 | 44.4 | Cc1cc(C)c(CNC(=O)c2ncnc(N3CCOCC3)c2C)c(=O)[nH]1 [Example 123, N-[(4,6-dimethyl-2-oxo-1,2-dihydropyridin-3-yl)methyl]-5-methyl-6-morpholin-4-ylpyrimidine-4-carboxamide]
17 | 49.3 | Cc1cc(C)c(CNC(=O)c2ncnc(-c3ccnn3C)c2C)c(=O)[nH]1 [Example 124, N-[(4,6-dimethyl-2-oxo-1,2-dihydropyridin-3-yl)methyl]-5-methyl-6-(1-methyl-1H-pyrazol-5-yl)pyrimidine-4-carboxamide]
18 | 50.7 | Cc1cc(C)c(CNC(=O)c2ncnc(N3CCCC3)c2C)c(=O)[nH]1 [Example 125, N-[(4,6-dimethyl-2-oxo-1,2-dihydropyridin-3-yl)methyl]-5-methyl-6-pyrrolidin-1-ylpyrimidine-4-carboxamide]
19 | 67.9 | Cc1cc(C)c(CNC(=O)c2cccc(OC(C)C)c2F)c(=O)[nH]1 [Example 130, N-[(4,6-dimethyl-2-oxo-1,2-dihydropyridin-3-yl)methyl]-2-fluoro-3-isopropoxy-benzamide]
20 | 77.8 | COC[C@H]1CCCN1c1ncnc(C(=O)NCc2c(C)cc(C)[nH]c2=O)c1C [Example 131, N-[(4,6-dimethyl-2-oxo-1,2-dihydropyridin-3-yl)methyl]-6-[(2R)-2-(methoxymeth-yl)pyrrolidin-1-yl]-5-methylpyrimidine-4-carboxamide]
21 | 81.4 | COCC1CCN(c2ncnc(C(=O)NCc3c(C)cc(C)[nH]c3=O)c2C)C1 (centres unmarked) [Example 132, N-[(4,6-dimethyl-2-oxo-1,2-dihydropyridin-3-yl)methyl]-6-[3-(methoxymeth-yl)pyrrolidin-1-yl]-5-methylpyrimidine-4-carboxamide]
22 | 87.5 | Cc1cc(C)c(CNC(=O)c2ncnc(N3CCC[C@@H]3CO)c2C)c(=O)[nH]1 [Example 133, N-[(4,6-dimethyl-2-oxo-1,2-dihydropyridin-3-yl)methyl]-6-[(2R)-2-(hydroxymeth-yl)pyrrolidin-1-yl]-5-methylpyrimidine-4-carboxamide]
23 | 127 | CCOc1cccc(C(=O)NCc2c(C)cc(C)[nH]c2=O)c1F [Example 134, N-[(4,6-dimethyl-2-oxo-1,2-dihydropyridin-3-yl)methyl]-3-ethoxy-2-fluoro-benzamide]
